Columns and labels:
[1] = tested on: murine bone marrow-derived macrophages; assay: area under cytotoxicity dose-response curve (AUC (% cytotoxicity x dose, relative)); higher = more cytotoxic; details: duration: 6 days; dose range: 0.13-80 uM, 8 points
In short: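 An 8-point, 2.5-fold dilution series (final 80–0.13 μM) was applied for 6 days at 37 °C in 5% CO2 to primary murine bone marrow-derived macrophages plated in opaque 384-well plates. Promega's CellTiter-Glo luminescence assay measured viability, and percent cytotoxicity was normalised against vehicle and positive control wells. The area under the dose–response curve, worked out in GraphPad Prism version 10, is the reported cytotoxicity measure.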

[2] = tested on: Mycobacterium tuberculosis CDC1551 (intracellular, in murine BMDM); assay: area under intracellular growth-inhibition dose-response curve (AUC (% inhibition x dose, relative)); higher = more potent; details: duration: 6 days; dose range: 0.13-80 uM, 8 points
In short: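 Each value is an area under the growth-inhibition dose–response curve, calculated with GraphPad Prism. Infected primary murine bone marrow-derived macrophages, carrying luciferase-expressing M. tuberculosis CDC1551 at multiplicity of infection 1, were treated for 6 days with an 8-dose, 2.5-fold series (final 80–0.13 μM) in 384-well opaque plates. Readout was by Bright-Glo luciferin assay, normalised to a reference drug control and the lowest-concentration wells.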

SMILES | area under cytotoxicity dose-response curve [1] | area under intracellular growth-inhibition dose-response curve [2]
C=CCOc1ccc(/C=N\NC(N)=S)cc1 | 10.8 | 276
CCOc1ccc(-n2cc(-c3ccc(OC)c(OC)c3)nc2S)cc1 | 81.6 | 210
COc1ccc(NC(=O)C/C(C)=N/NC(=O)c2ccncc2)c([N+](=O)[O-])c1 | 129 | 169
N#C/C(=N/Nc1ccc(OC(F)(F)F)cc1)C(N)=S | 90 | 62.6
O=Cc1c(Nc2cccc(C(F)(F)F)c2)nc2ccccn2c1=O | < 0 | 234
Cc1ccc2nc(C)c3c(c2c1)SCC3 | 24.5 | 79.5
O=C(NCc1ccco1)c1cc2ccccc2o1 | 135 | 105
O=C(COc1ccccc1)NC1CCCCC1 | 80.6 | 260
COc1ccccc1/C=C1\SC(=S)N(CCC(=O)Nc2ccc(C(=O)O)c(O)c2)C1=O | < 0 | 124
Brc1ccc(-[n+]2c(-c3ccccc3)cc(-c3ccccc3)cc2-c2ccccc2)cc1.[O-][Cl+3]([O-])([O-])[O-] | 14.7 | 70.1
Cc1ccc(/C=N/NC(=O)c2ccncc2)o1 | 78.6 | 213
Cc1ccc(C2=NCCn3c2c2ccc(C(F)(F)F)cc2[n+]3[O-])cc1 | < 0 | 161
O=C(Nc1ccc(S(=O)(=O)Nc2nccs2)cc1)c1c(F)c(F)c(F)c(F)c1F | 64.8 | 82.5
COc1ccccc1N1C(C)=CC(=Cc2sc3ccccc3[n+]2C)C=C1C.[I-] | 25.9 | 119
COCCNc1c(-c2ccc(OC)cc2)nc2ccc(Cl)cn12 | 32.9 | 87.8
Cc1ccc(S(=O)(=O)Nc2c(C)n(C)n(-c3ccccc3)c2=O)cc1C(=O)OC(C)C(=O)c1ccccc1 (stereo unspecified) | 6.34 | 17
Cc1ccc(C2=NN(C(=O)CCl)C(c3cccs3)C2)o1 (stereo unspecified) | 25.9 | 105
COC(=O)c1ccc(COc2ccc(/C=N/NC(N)=S)cc2)o1 | 50.5 | 277
CC1CCC(C(C)C)C(OC(=O)Cn2c(-c3ccc(Br)cc3)[n+](C)c3ccccc32)C1.[Cl-] (stereo unspecified) | 147 | 128
O=C(NC1CCCC1)c1cc2ccccc2o1 | 56.4 | 225
O=C(Nc1ccc(C(=O)Oc2ccccc2)c(O)c1)c1ccccc1 | 93.1 | 210
COc1ccc(NC(=O)/C(Cl)=C(/Cl)S(=O)Cc2ccccc2Cl)cn1 (stereo unspecified) | 140 | < 0
NC1CCN(c2c(F)cc3c(=O)c(C(=O)O)cn(C4CC4)c3c2Cl)C1 (stereo unspecified) | < 0 | 210
FC(F)(Cl)c1nnc2ccc(Cl)nn12 | 26.5 | 126
O=C(N/N=C/c1ccc(O)cc1)c1ccncc1 | 1.59 | 168
OC(CCCC(O)c1ccccc1)c1ccccc1 (stereo unspecified) | 31.6 | 203
CCOC(=O)c1c(-c2ccccc2)oc2ccc(O)c(CN3CCCC3)c12 | < 0 | 278

SMILES | area under cytotoxicity dose-response curve [1] | area under intracellular growth-inhibition dose-response curve [2]
CCCC(=O)NC(=S)Nc1ccc(N2CCN(C(=O)c3cccs3)CC2)cc1 | < 0 | 274
On1c(-c2ccc(Cl)cc2)nc2ccccc21 | 124 | 63.1
Cc1ccc(-n2c(C)cc(/C=N/NC(=O)c3ccncc3)c2C)c(C)c1 | < 0 | 268
COC(=O)c1c(NC(=O)CN2C(=O)NC3(CCCCC3C)C2=O)sc2c1CCC2 (stereo unspecified) | 4.39 | 78.7
Sc1[nH]cnc2ncnc1-2 | < 0 | 88.6
O=S1(=O)C=C(Sc2nc3ccccc3s2)c2ccccc21 | 179 | < 0
CN(CC(=O)Nc1ccc(OC(F)(F)F)cc1)C(=O)/C=C/c1cc2c(cc1[N+](=O)[O-])OCO2 | < 0 | 135
O=C(NC1CCCCC1)c1ccc2c(c1)OCO2 | 88.5 | 125
Cc1ccc(OCCOC(=O)c2c(-c3ccccc3)noc2C)cc1 | < 0 | 200
CC(=O)c1c(C)[n+]([O-])c2ccccc2[n+]1[O-] | 17.5 | 84.7
CCOc1ccc(C(=O)NC(=S)Nc2ccc(N3CCC(C)CC3)cc2)cc1[N+](=O)[O-] | 81.7 | 254
Cc1nc(N/N=C\c2ccc3c(c2)OCO3)sc1C | 150 | 252
COc1ccc(C2=NOC(CNC(N)=S)C2)cc1 (stereo unspecified) | 7.88 | 92.8
O=C(N/N=C/c1cccc2nccnc12)c1ccncc1 | 36.1 | 271
CC1CCCC(C)N1C(=O)COC(=O)c1cccnc1Cl (stereo unspecified) | 9.13 | 33.7
CCCCN1CC(COc2ccccc2)OC1=O (stereo unspecified) | < 0 | 195
CC(NC(=O)c1ccccc1F)C12C[C@H]3C[C@@H](C1)C[C@@H](C2)C3 (stereo partly specified) | 18.2 | 234
Cc1cc(C)c2c(n1)sc1c(N3CCCCC3)ncnc12 | 73.3 | 142
O=C(CNC(=O)c1ccc([N+](=O)[O-])cc1)N/N=C\c1ccc(OC(=O)c2ccccc2)cc1 | < 0 | 109
CCOc1ccccc1NC(=O)c1ccc2[nH]c(C)c(C)c2c1 | 6.53 | 192
CCOc1ccc(/C=N/NC(N)=S)cc1 | 28.9 | 270
CN1CCN(c2c(F)cc3c(=O)c(C(=O)[O-])cn4c3c2OCN4C)CC1 | 18.2 | 187
Cl.c1ccc(CN2CCC3(CCCc4ccccc43)CC2)cc1 | 45.5 | 160
CCc1ccc([C@@H]2CC=C(C(=O)O)[C@H](c3ccc(C(C)(C)C)cc3)N2S(=O)(=O)c2ccc(C)cc2)cc1 | 78.6 | 84.8
O=C(Nc1ccc2c(c1)OCCO2)NC12CC3CC(CC(C3)C1)C2 | 22.8 | 136
COc1ccc(CCNc2cc(-c3ccccc3)nc3ncnn23)cc1 | < 0 | 218
